The record followed here is publication PMC12040169 (PLOS Biology, 2025).

The nature of one series: in vitro. The following applies: human, hela cells, % viability.
Regarding `CN1CCN(/N=C/c2c(C(F)(F)F)[nH]n(-c3nc4ccccc4s3)c2=O)CC1` [CBK263163], the viability at 28.5 h, 10 µM worked out at 92.4%. `Cn1cc(-c2cncn2CCCOc2ccc(Cl)cc2)cn1` [CBK281784]: the viability at 28.5 h, 10 µM was found to be 95.2%.

Turning to `CSc1ccc(-c2nc(NC(=O)C(C)C)cc3ccccc23)cc1` [CBK085735], the viability at 28.5 h, 10 µM stood at 95.5%. Take `Cn1c(=O)n(C)c2cc(S(=O)(=O)Nc3ccc(Cl)c(C(=O)O)c3)ccc21` [CBK299841]: the viability at 28.5 h, 10 µM was found to be 90.8%.

Take `CCCc1ccc(OCC(=O)Nc2ccccc2C(N)=O)cc1` [CBK263103]: the viability at 28.5 h, 10 µM turned out to be 88.7%. Take `O=C(N/N=C/c1ccccn1)c1cc(-c2ccc3ccccc3c2)[nH]n1` [CBK262886]: the viability at 28.5 h, 10 µM turned out to be 93.9%. Still for that read-out and setting: the value for `CCOc1ccc(S(=O)(=O)N2CCCN(Cc3cccc(C(F)(F)F)c3)CC2)c2cccnc12` [CBK062760] was 84.3%; that for `c1coc(CNc2c(-c3ccco3)nc3cnccn23)c1` [CBK283496] was 103%; that for `CC1(C)CC(/N=C(\c2ccccc2)c2ccc(O)cc2O)CC(C)(C)N1` [CBK262004] was 101%. Same read-out and setting: the value for `COc1ccc(NC(=O)Nc2ccc3nc(C)c(C)nc3c2)cc1` [CBK265120] was 97.4%; that for `Cc1ccc(S(=O)(=O)N(C)CC(=O)O/N=C(\N)c2cccnc2)cc1` [CBK266717] was 110%. Same read-out and setting: the value for `O=C(NNc1nc(-c2ccccc2)cc(-c2ccccc2)n1)Nc1ccccc1` [CBK262223] was 91.3%.

For the compound `N#Cc1c(NC(=O)CSc2nc(=O)cc(N)n2CCc2ccccc2)sc2c1CCCC2` [CBK293993], the viability at 28.5 h, 10 µM came to 82.4%. On to `CC(C)(CO)CNc1nc(-c2cc(C(F)(F)F)cc(C(F)(F)F)c2)cnc1N` [CBK063490], for which the viability at 28.5 h, 10 µM came out at 101%. On the same count and under the same terms, the value for `COc1cc2c(cc1NC(=O)CSc1nc3ccccc3[nH]1)oc1ccccc12` [CBK265153] was 100%; that for `CC(C)C(=O)NC1CCN(C(=O)CCn2ccc3ccncc32)CC1` [CBK284730] was 98%.

On to `O=C(NCCc1ccncc1)c1cccs1` [CBK056969], for which the viability at 28.5 h, 10 µM is 107%. On the same count and under the same terms, the value for `COc1ccc(N2Cc3ccccc3C2=O)cc1OC` [CBK113666] was 95.5%. As for `N#Cc1c(NC(=O)CSc2nnc(-c3ccc(Cl)cc3)o2)oc(-c2ccccc2)c1-c1ccccc1` [CBK267655], the viability at 28.5 h, 10 µM was 93.9%. Regarding `CCn1c(SCC(=O)Nc2cccc([N+](=O)[O-])c2)nnc1-c1cc(Br)ccc1O` [CBK267980], the viability at 28.5 h, 10 µM came out at 86%. `CS(=O)(=O)Nc1ccc(N2CCNCC2)c2ccccc12` [CBK059355C]: the viability at 28.5 h, 10 µM is 79.3%. Still for that read-out and setting: the value for `CN(C)C(=O)[C@H]1CN2CCC1C[C@@H]2Cn1cc(CCO)nn1` (some centres unmarked) [CBK289089] was 89.9%; that for `CCC(=O)N1CCCc2cc(C(O)CN3CCN(c4cccc(OC)c4)CC3)ccc21` (centres unmarked) [CBK286476] was 114%; that for `Cn1nccc1CN1CCCC(Cc2nc3ccccc3[nH]2)C1` (centres unmarked) [CBK281892] was 98.2%. The same measure, in the same setting: as for `CCN(CC)CCCC(C)Nc1ccnc2cc(Cl)ccc12` (centres unmarked) [CBK017143], the figure is 85.6%.

As to `O=C(O)C1CCN(C(=O)NCCOc2ccccc2)CC1` [CBK156072], the viability at 28.5 h, 10 µM is 82.2%.

On to `CC(=O)c1ccc(NC(=O)[C@@]2(CC(=O)O)CC(c3ccc(F)cc3)=NO2)cc1` [CBK286663], for which the viability at 28.5 h, 10 µM was determined as 85%. For the compound `COc1ccc(S(=O)(=O)Nc2ccc(C(=O)O)cc2)cc1[N+](=O)[O-]` [CBK266130], the viability at 28.5 h, 10 µM was 103%.

In the case of `Cc1cc(COc2cc(N3CCCNCC3)ncn2)no1` [CBK085462], the viability at 28.5 h, 10 µM was 95.4%. Still for that read-out and setting: the value for `Cc1ccc(Cn2ncc3c(C(=O)N4CCC(N(C)S(C)(=O)=O)CC4)cc(C)nc32)cc1` [CBK298280] was 102%. For the compound `CC(Cc1ccccn1)N(C)C(=O)c1cnn(-c2ccc(F)cc2)c1` (centres unmarked) [CBK283316], the viability at 28.5 h, 10 µM came to 99.6%. As for `Cc1ccc(S(=O)(=O)c2cccc(S(=O)(=O)N3CCCCC3)c2)cc1S(=O)(=O)N1CCCCC1` [CBK262207], the viability at 28.5 h, 10 µM worked out at 105%. On to `CCN(C)c1c(C)nc2c(OCc3cccc(Cl)c3)cccn12` [CBK147310], for which the viability at 28.5 h, 10 µM is 100%. On the same count and under the same terms, the value for `COc1ccc(C)cc1S(=O)(=O)N1CCc2c(CN3CCOCC3)cccc21` [CBK113630T] was 86.8%; that for `O=C(NCCOc1ccccc1)N1CCN(Cc2ccccc2)CC1` [CBK155652] was 93.3%. `O=C(Cn1ccnc1)Nc1nc(-c2ccccc2F)cs1` [CBK281409]: the viability at 28.5 h, 10 µM was found to be 104%. On the same count and under the same terms, as for `O=C(NC(c1ccccc1)c1ccccn1)C1CCN(C(=O)Oc2ccccc2)CC1` (centres unmarked) [CBK060105], the figure is 96.9%; as for `Cc1nnc(S)n(Cc2ccc(F)cc2)c1=O` [CBK288502], 106%. Same read-out and setting: as for `O=C(NC(=S)Nn1cnnc1)c1ccccc1` [CBK028188], the figure is 125%. Same read-out and setting: the value for `O=C(c1cc(-c2ccncc2)nc2ccc(Cl)cc12)N1CCN(C/C=C/c2ccccc2)CC1` [CBK267754] was 106%; that for `O=c1c(Oc2ccccc2Br)c(C(F)(F)F)oc2c(CN3CCCC3)c(O)ccc12` [CBK217827] was 96%. Consider `CCOC(=O)c1sc2ccc(NC(C)=O)cc2c1C` [CBK021052], for which the viability at 28.5 h, 10 µM was found to be 76.8%. On to `Cc1cc(C(=O)NC(C)Cn2nc(C)cc2C)c2cccc(C)c2n1` (centres unmarked) [CBK281635], for which the viability at 28.5 h, 10 µM amounted to 91.4%. On to `COc1ccc(OC(=O)C2COc3ccccc3O2)cc1` (centres unmarked) [CBK131816], for which the viability at 28.5 h, 10 µM was 100%. On the same count and under the same terms, the value for `Cc1ccc(-c2cc(O)n(-c3nc(C)cc(C)n3)n2)cc1` [CBK270165] was 97.1%; that for `CCC(C)C(NC(=O)C1CCN(S(=O)(=O)c2ccc(OC)c(OC)c2)CC1)C(=O)O` (centres unmarked) [CBK297140] was 90.7%. On the same count and under the same terms, as for `CCOc1ccc(Nc2ncnc3c2cnn3Cc2ccccc2)cc1` [CBK072752], the figure is 97.8%; as for `Cn1cc(CC2CCN(Cc3ccc(Oc4cnccn4)cc3)C2)cn1` (centres unmarked) [CBK304188], 108%; as for `O=C(NCC1CCCCC1)N1CCN(c2ccc(F)cc2)CC1` [CBK156397], 86.9%. Still for that read-out and setting: the value for `CCc1nn(CC(=O)NCC2CC2)c(=O)c2cc3ccsc3n12` [CBK284129] was 87.8%. In the case of `Cc1ncc([N+](=O)[O-])n1Cc1nnc(S)n1C` [CBK267873], the viability at 28.5 h, 10 µM turned out to be 95.4%. `O=C(O)c1[nH]c2ccccc2c1/C=N/Cc1ccccc1Cl` [CBK294456]: the viability at 28.5 h, 10 µM is 98.7%. As for `COC(=O)c1c(NC(=S)NCc2ccc(S(N)(=O)=O)cc2)sc2c1CCC(C)C2` (centres unmarked) [CBK267039], the viability at 28.5 h, 10 µM was determined as 97.6%.

With `O=C(O)c1cc(S(=O)(=O)N2CCCCC2)ccc1O` [CBK286595], the viability at 28.5 h, 10 µM turned out to be 89.6%. Turning to `C=C(C)Cn1c(SCC(C)C)nnc1-c1cnccc1C` [CBK200075T], the viability at 28.5 h, 10 µM came to 96%. Take `CC(C)Oc1cncc(Cl)n1` [CBK113321]: the viability at 28.5 h, 10 µM turned out to be 106%. On to `O=C(COc1ccc(I)cc1)Nc1cccnc1` [CBK263430], for which the viability at 28.5 h, 10 µM worked out at 98.9%.

On to `CCOC(=O)Cn1ncc2c3sc(C)cc3n(C)c2c1=O` [CBK282388], for which the viability at 28.5 h, 10 µM came to 96.2%.

For the compound `Cc1cc2c(o1)c1cnn(CC(=O)N3CCCC(C)C3)c(=O)c1n2C` (centres unmarked) [CBK284218], the viability at 28.5 h, 10 µM stood at 85%. For `CCOc1ccc(CC(=O)N2CCC(c3ccncc3)CC2)cc1` [CBK283596], the viability at 28.5 h, 10 µM was 87.8%. Still for that read-out and setting: the value for `COc1cc(CNc2cc(-c3ccc(NC(C)=O)cc3)ncn2)cc(OC)c1OC` [CBK091185] was 93.6%; that for `CC(=O)Nc1ccc(-c2cncc(Nc3ccc(C#N)cc3)n2)cc1` [CBK066009] was 97.5%. As for `CC1(O)CCCN(C(=O)c2c[nH]nc2-c2cc3ccccc3o2)C1` (centres unmarked) [CBK305555], the viability at 28.5 h, 10 µM amounted to 88.3%. On the same count and under the same terms, the value for `O=C(O)c1cc(/C=C/c2ccc(Br)cc2)nc2ccccc12` [CBK299805] was 94.3%; that for `CN1CCN(C(=O)CCn2c(C(F)(F)F)cc3cccnc32)CC1` [CBK284896] was 93.7%. Still for that read-out and setting: as for `NS(=O)(=O)c1ccc(NC(=O)/C(=C/c2ccc(Br)cc2)NC(=O)c2ccccc2)cc1` [CBK262109], the figure is 105%; as for `CC(=O)N1CCCc2cc(NC(=O)NCCc3cnn(C)c3)ccc21` [CBK304937], 88.7%; as for `CN(C)CCN(C)[C@H]1CCCC[C@@H]1N(C)C(=O)Cc1ccc(Br)cc1` [CBK023819C], 93.4%.

With `CC1(C)CN(c2ccc(Cl)cn2)C1=O` [CBK018550], the viability at 28.5 h, 10 µM came out at 93.6%. Same read-out and setting: as for `O=C(c1ccc2[nH]c(=O)[nH]c2c1)N1CCC2(CCNC2)C1` (centres unmarked) [CBK156747C], the figure is 101%; as for `O=C(Nc1cccc(F)c1)N(Cc1cccnc1)CC1CCCO1` (centres unmarked) [CBK304065], 109%. As for `COC(=O)C1CCN(S(=O)(=O)c2ccccc2[N+](=O)[O-])CC1` [CBK264393], the viability at 28.5 h, 10 µM stood at 115%.

For the compound `CC(C)(C)c1ccc(C(=O)N2CC[C@H]3NC(=O)N(Cc4ccccc4)C(=O)[C@H]32)cc1` [CBK289294], the viability at 28.5 h, 10 µM is 86%. Turning to `Cc1cc(Cl)ccc1OCC(=O)Nc1nnc[nH]1` [CBK287940], the viability at 28.5 h, 10 µM is 86.3%.

For `O=S(=O)(c1ccc(OC(F)(F)F)cc1)N1CCN(Cc2ccc3c(c2)OCO3)CC1` [CBK200040], the viability at 28.5 h, 10 µM was found to be 82.5%. Same read-out and setting: as for `Cn1c(CCNC(=O)C2CCCCC2)nc2cc([N+](=O)[O-])ccc21` [CBK268440], the figure is 106%; as for `O=C(Nc1ccc2c(c1)CS(=O)(=O)C2)c1cccs1` [CBK057563], 113%.

`Nc1ncc(-c2cccc(O)c2)nc1NCc1ccco1` [CBK063675]: the viability at 28.5 h, 10 µM is 92.1%. Regarding `CCC1(C)CC(C(CCN)c2ccc(C)cc2)CCO1` (centres unmarked) [CBK027350], the viability at 28.5 h, 10 µM worked out at 98.8%.

Still in this series, the particulars now being: human, hela cells, % viability, bulk resorufin, single well.
On to `CONC(=O)c1nn(Cc2ccc(C)cc2)c2ccccc12` [CBK047848], for which the viability at 28.5 h, 10 µM came to 79.6%.
